Source: US8334000B2, “Anti-angiogenic extracts from pomegranate” (priority 2003, dated 2012)
Where two headings read alike, the source gives them in different places.

How the values were obtained:
[1] = tested on: human placental vein discs; experiment: Human placental vein angiogenesis model (HPVAM): initiation and angiogenic index; format: cell-based; details: for inhibition at 0.01 % strength: 0.01% w/v
From the text: The Human Placental Vein Angiogenesis Model: Discarded human placentas were obtained anonymously with prior approval of an Institutional Review Board. The placental veins were dissected free from the placenta and adventitial tissue. The trimmed vein segment was opened longitudinally to produce a flat film of venous tissue of full thickness. Vein discs (2 mm diameter) were created with a sterile skin punch (Miltex Instrument Company, Inc.; Lake Success, N.Y.). The discs were placed into wells of a standard 96-well plate (Corning Inc., Corning, N.Y.). The vein disc harvest was completed within three hours of delivery to optimize endothelial cell viability. Vein discs from a single placenta were distributed equally among all treatment groups to ensure randomization. Each well was preloaded with a human thrombin solution (0.05 IU in 2.0 μl), and allowed to evaporate to dryness before use. All chemicals were purchased from Sigma Chemical Company (St. Louis, Mo.) unless otherwise indicated.
Following the placement of the 2 mm vein disc in the bottom of each thrombin-containing well, the disc was covered with 100 μl of a clot-forming medium, comprising 3 mg/ml fibrinogen and 0.5% Σ-amino caproic acid dissolved in Human Placental Vein Angiogenesis Media (HPVAM). HPVAM is made of Medium 199 (Vitrogen Corporation, Carlsbad, Calif.), an antibiotic/antimycotic solution (100 U/ml penicillin, 100 U/ml streptomycin sulfate, and 0.25 μg/ml amphotericin(3; Vitrogen Corporation), and endothelial growth medium (25%) (Vitrogen Corporation). The mixture was allowed to clot by incubating in 5% CO2, 95% air at 37° C. in a humidified incubator. After the medium-containing placental discs had clotted, the vein-containing clot was supplemented with 100 μl HPVAM containing 20% fetal bovine serum (Vitrogen Corporation). The total well volume was 200 μl.
Evaluation of Angiogenesis: Visual evaluation of all wells was performed at 20× or 40× magnification with a standardized reference grid by an unbiased observer using an inverted microscope. Every other day, discs were graded using two criteria: the initiation of sprouting vessels (initiation) and the degree of sprouting (angiogenic index). Initiation of an angiogenic response was defined as the development of three or more vessel sprouts around the periphery of the vein disc. Initiation occurred in 50-95% of the wells, usually 4 to 6 days after establishment of the clots. Initiation was expressed as the percent of the total wells plated that indicated an angiogenic response.
The angiogenic index (AI) was defined using a subjective visual rating system. Each disc was visually rated for the development of vessel sprouting in each of four quadrants. Each of the four quadrants for each disc was rated on a 0-4 scale, depending on the number of sprouts (density) and the length of sprouts. Scores for all four quadrants were summed to express the AI, a numerical rating that could range from 0 to 16. A score of zero indicated no vessel growth in any of the four quadrants, while a score of 16 indicated long, dense angiogenic vessel growth in all four quadrants. For most experiments, the AI was expressed as a mean plus/minus a standard error of the mean.
To separate the process of initiation from that of proliferation, the AI was analyzed both with zero AI data points and without zero AI data points. […] This lack of initiation could have been due either to the effect of the experimental compound, to the insensitivity of the vein disc to stimulation in the culture conditions, or to the vein disc not being viable. In previous experiments, we have shown that only a small percent, about 2 to 3%, of vein discs are not viable (data not shown). Thus, a graph of AI with zero AI data points indicates the complete angiogenic response of initiation and growth under the experimental conditions. However, a graph of AI without the zero AI data points indicates only growth of the vessels after initiation. […]

human fat tissue = experiment: Human fat tissue angiogenesis assay; format: cell-based; details: 0.01 M and 0.001 M, data not shown
Protocol: To test the angiogenic activity of plant extracts in another tissue, the refined fraction PUG100 was tested for its anti-angiogenic activity in human fat tissue taken from patients having gastric bypass surgery (Vista Surgical Hospital, Baton Rouge, La.). The human fat tissue assay was conducted very similar to that described in Example 1 for human placental vein tissue. […] (FIG. 25a). Immediately after the addition of the refined fraction PUG100, angiogenic vessel growth started to diverge. The control wells continued their growth, but the PUG100 treated wells stopped further growth. […] (Data not shown).

[2] = 5% gallic acid, oral, 13 wks; cited from earlier work
[3] = Homo sapiens, 336 h, 14 days in culture, FIG. 12a, read-out: inhibition of angiogenic initiation compared to the control
[4] = Homo sapiens, FIG. 12b, read-out: inhibition of angiogenesis compared with the control (mean AI with the zero points)
[5] = Homo sapiens, FIG. 12b, read-out: inhibition of angiogenic growth compared with the control (mean AI without the zero points)
[6] = highest concentration tested (2×10^−2M; octyl gallate 2×10^−3 M), FIG. 13a

Structure (SMILES)	inhibition at 0.01 % strength [1, 3] [%]	inhibition at 0.01 % strength [1, 4] [%]	inhibition at 0.01 % strength [1, 5] [%]	initiation of angiogenesis [1, 6]	also measured
CCCCOC(=O)c1cc(O)c(O)c(O)c1 [butyl gallate]	85	96	74	totally blocked	
COC(=O)c1cc(O)c(O)c(O)c1 [methyl gallate]	38	71	52		
O=C(O)c1cc(O)c(O)c(O)c1 [gallic acid, 3,4,5-trihydroxy benzoic acid]				totally blocked	initiation of angiogenesis (human fat tissue): inhibited initiation of angiogenesis; body weight gain [2]: suppress body weight gain; initiation of angiogenesis ([1]; 0.025%, added after six days, FIG. 5a): totally inhibited; initiation of angiogenesis ([1]; 10^−3 M, FIG. 6a): totally inhibited; mean AI with the zero points included (initiation and proliferation) ([1]; 10^−3 M, FIG. 6b): totally inhibited angiogenesis; Percent initiation ([1]; 10^−4 M, FIG. 6a): 56%; Percent initiation ([1]; 10^−5 M, FIG. 6a): 50%; concentrations at which the inhibitory effect stopped (mean AI with zero points) ([1]; FIG. 6b): ≤ 10^−6 M; concentrations that showed inhibition (mean AI without the zero points, proliferation only) ([1]; FIG. 6c): greater than 10^−4 M; inhibition at 25 µM ([1]; Homo sapiens, read-out: estimated inhibition (IC19) if gallic acid were the only active compound, 2.5×10^−5 M): 19%; Percent initiation ([1]; up to 10^−10 M, FIG. 6a): 33%
CCCCCCCCOC(=O)c1cc(O)c(O)c(O)c1 [octyl gallate]	85	97	83	totally blocked	lowest concentration indicating inhibition of angiogenesis [1]: 200 µM; initiation of angiogenesis ([1]; 2×10^−4 M, FIG. 13a): totally blocked; mean AI with the zero points included (initiation and proliferation) ([1]; 2×10^−4 M, FIG. 13b): effective
O=C(OC[C@H]1O[C@@H](OC(=O)c2cc(O)c(O)c(OC(=O)c3cc(O)c(O)c(O)c3)c2)[C@H](OC(=O)c2cc(O)c(O)c(OC(=O)c3cc(O)c(O)c(O)c3)c2)[C@@H](OC(=O)c2cc(O)c(O)c(OC(=O)c3cc(O)c(O)c(O)c3)c2)[C@@H]1OC(=O)c1cc(O)c(O)c(OC(=O)c2cc(O)c(O)c(O)c2)c1)c1cc(O)c(O)c(OC(=O)c2cc(O)c(O)c(O)c2)c1 [tannic acid, Tannic acid]					initiation of angiogenesis ([1]; 0.1% in HPVAM, FIG. 8a): inhibited the initiation of angiogenesis even better than the positive heparin-steroid control
CCCOC(=O)c1cc(O)c(O)c(O)c1 [propyl gallate]	46	61	28		
